# Active and inactive are the calls of the source. The rule behind the calls is not given here.
# Legend:
# [1] = test system: CHO; assay: Antagonist activity at chinese hamster D2 receptor expressed in CHO cells assessed as su-manirole induced response at 0.1 nM and measured for 30 mins by dynamic mass redistribution by DMR assay relative to control; assay type: cell-based; settings: Cricetulus griseus, filed as antagonist
# [2] = test system: CHO; assay: Antagonist activity at chinese hamster A2A receptor expressed in CHO cells assessed as CGS 21 680 induced response at 10 nM and measured for 30 mins by dynamic mass redistribution by DMR assay; assay type: cell-based; settings: Cricetulus griseus, filed as antagonist
# [3] = test system: HEK293T; assay: Stabilization of A2A/D2 receptor heterodimerization in human HEK-293T cells cotransfected with A2AR-Rluc and D2R-YFP at 100 nM assessed as increase in heteromer stabilization by measuring yellow fluorescent protein level by BRET assay relative to control; assay type: cell-based
# [4] = species on record: Ovis aries; assay: Displacement of [3H]YM-09151-2 from dopamine D2 receptor from sheep brain striatum membrane assessed as first protomer region in unoccupied dimer incubated for 2 hrs by radioligand based competition binding assay; assay type: cell membranes
# [5] = species on record: Ovis aries; assay: Displacement of [3H]- ZM 241 385 from A2A receptor from sheep brain striatum membrane assessed as first protomer region in the unoccupied dimer incubated for 2 hrs by radioligand based competition binding assay; assay type: cell membranes
# [6] = species on record: Ovis aries; assay: Displacement of [3H]- ZM 241 385 from A2A receptor from sheep brain striatum membrane assessed as first protomer region in the unoccupied dimer in presence of TM3-TAT peptide by radioligand based competition binding assay; assay type: cell membranes
# [7] = species on record: Ovis aries; assay: Displacement of [3H]- ZM 241 385 from A2A receptor from sheep brain striatum membrane assessed as first protomer region in the unoccupied dimer in presence of TM5-TAT peptide by radioligand based competition binding assay; assay type: cell membranes
Compound,Activity [1],Activity [2],Activity [3],K [4],also measured
COC(=O)CN(CC(=O)NCCCOCCOCCOCCCNC(=O)CCC(=O)Nc1ccc(CCN2CN(c3ccccc3)C3(CCN(CCCC(=O)c4ccc(F)cc4)CC3)C2=O)cc1)CC(=O)NCCCOCCOCCOCCCNC(=O)COc1ccc(CCCn2ncc3c2nc(N)n2nc(-c4ccco4)nc32)cc1,Antagonist,Antagonist,Active,,
Nc1nc2c(cnn2CCCc2ccc(OCC(=O)O)cc2)c2nc(-c3ccco3)nn12,,Antagonist,,,
COC(=O)CN(CC(=O)NCCOCCOCCNC(=O)CCC(=O)Nc1ccc(CCN2CN(c3ccccc3)C3(CCN(CCCC(=O)c4ccc(F)cc4)CC3)C2=O)cc1)CC(=O)NCCOCCOCCNC(=O)COc1ccc(CCCn2ncc3c2nc(N)n2nc(-c4ccco4)nc32)cc1,,,Active,,
O=C(O)CCC(=O)Nc1ccc(CCN2CN(c3ccccc3)C3(CCN(CCCC(=O)c4ccc(F)cc4)CC3)C2=O)cc1,Active,,,,
COC(=O)CN(CC(=O)NCCOCCOCCOCCOCCOCCNC(=O)CCC(=O)Nc1ccc(CCN2CN(c3ccccc3)C3(CCN(CCCC(=O)c4ccc(F)cc4)CC3)C2=O)cc1)CC(=O)NCCOCCOCCOCCOCCOCCNC(=O)COc1ccc(CCCn2ncc3c2nc(N)n2nc(-c4ccco4)nc32)cc1,Antagonist,Antagonist,Active,0.13 nM,K [5]: 2.1 nM; K [6]: 1.7 nM; K [7]: 36 nM
COC(=O)CN(CC(=O)NCCOCCOCCOCCOCCOCCNC(C)=O)CC(=O)NCCOCCOCCOCCOCCOCCNC(=O)CCC(=O)Nc1ccc(CCN2CN(c3ccccc3)C3(CCN(CCCC(=O)c4ccc(F)cc4)CC3)C2=O)cc1,,,,0.5 nM,

# Reference: ChEMBL document CHEMBL5042516, “Heterobivalent Ligand for the Adenosine A2A-Dopamine D2 Receptor Heteromer” (J Med Chem, 2022)
